Laboratory results reported in patent US20260227397A1, “METHODS AND SYSTEMS OF PROFILING WITH BIOLOGICAL COMPUTING CELLS” (XENO CELL INNOVATIONS S.R.O., priority 2023, published 2026).

T1: alpha-factor, P01149
T1 chain: WHWLQLKPGQPMY

B1: BAR1 protease of BAR1 computing units (protein)
chain: LTNDGTGHLEFLLQHEEEMYYATTLDIGTPSQSLTVLFDTGSADFWVMDSSNPFCLPNSNTSSYSNATYNGEEVKPSIDCRSMSTYNEHRSSTYQYLENGRFYITYADGTFADGSWGTETVSINGIDIPNIQFGVAKYATTPVSGVLGIGFPRRESVKGYEGAPNEYYPNFPQILKSEKIIDVVAYSLFLNSPDSGTGSIVFGAIDESKFSGDLFTFPMVNEYPTIVDAPATLAMTIQGLGAQNKSSCEHETFTTTKYPVLLDSGTSLLNAPKVIADKMASFVNASYSEEEGIYILDCPVSVGDVEYNFDFGDLQISVPLSSLILSPETEGSYCGFAVQPTNDSMVLGDVFLSSAYVVFDLDNYKISLAQANWNASEVSKKLVNIQTDGSISGAKIATAEPWSTNEPFTVTSDIYSSTGCKSRPFLQSSTASSLIAETNVQSRNCSTKMPGTRSTTVLSKPTQNSAMHQSTGAVTQTSNETKLELSSTMANSGSVSLPTSNSIDKEFEHSKSQTTSDPSVAEHSTFNQTFVHETKYRPTHKTVITETVTKYSTVLINVCKPTY

Experiments:
[1] = tested on: HaCaT (HCT, EpCAM+) cells; test: Cell-specific apoptosis rate in mixed HaCaT/Jurkat cell cultures (biocytometry readout); assay type: cell-based
Description: The presently described biocytometry was evaluated for measuring cell-specific apoptosis in mixed cell cultures. Despite the growing trend toward studying apoptosis in complex biological systems such as organoids and mixed cell cultures, conventional methods such as Caspase-based assays and MTT tests still yield limited sensitivity and quantify only aggregate apoptosis levels. To assess cell-specific apoptosis, mixed cultures of HaCaT (HCT, EpCAM+) and Jurkat (JUR, EpCAM−) cells at varied ratios (1:0 to 1:8) were utilized. Cells were cultured at a density of 40,000 cells/well in RPMI medium supplemented with 10% FBS and either subjected to 1 mM DTT treatment or left untreated. Following a 2.5-hour incubation at 37° C. in a 5% CO2 atmosphere, both total and apoptotic HaCaT cell counts were established using BIOS(EpCAM) and BIOS (EpCAM+PS), adhering to the biocytometry protocol. A noticeable reduction in total EpCAM+ cell count was evident in induced cell cultures, alongside an increase in the number of apoptotic EpCAM+ cells, aligning with the anticipated apoptotic changes (FIG. 12A). Apoptotic rates were calculated by normalizing BIOS(EpCAM+PS) counts to total cell counts from BIOS(EpCAM). […]

[2] = biological target: T1, alpha-factor, P01149

| Molecule | increase in apoptotic rates among EpCAM+ cells ([1]; 1 mM DTT vs untreated controls) [fold] | apoptotic rate among EpCAM+ cells ([1]; 1 mM DTT, 2.5-hour incubation at 37° C., 1.7% baseline in untreated controls) [%] | degradation of alpha-factor; activation threshold of the biosensors [2] |
| --- | --- | --- | --- |
| O[C@@H](CS)[C@@H](O)CS [DTT] | 7.2 | 12.2 |  |
| B1 |  |  | effectively degraded alpha-factor, raising the activation threshold of the biosensors |
